Assay [1] addresses T1, WRN [UniPro: Q14191 (WRN_HUMAN), N500-C946] (Homo sapiens (Human), UniProt Q14191). Kind of assay: WRN ATPase assay (ADP-Glo). Type of assay: biochemical. The conditions noted are these: WRN enzymatic activity assay. (In general: In ADP-Glo the light output rises with the ADP produced.)
Assay [2] deals with T1, WRN [UniPro: Q14191 (WRN_HUMAN), N500-C946]. Kind of assay: WRN unwinding assay (FORKF DNA, fluorescence). Type of assay: biochemical. Conditions: Table 14.

The IC50 is the concentration that gives 50% inhibition. A lower IC50 goes with greater potency in that assay.

T1 sequence (Q14191 500-946): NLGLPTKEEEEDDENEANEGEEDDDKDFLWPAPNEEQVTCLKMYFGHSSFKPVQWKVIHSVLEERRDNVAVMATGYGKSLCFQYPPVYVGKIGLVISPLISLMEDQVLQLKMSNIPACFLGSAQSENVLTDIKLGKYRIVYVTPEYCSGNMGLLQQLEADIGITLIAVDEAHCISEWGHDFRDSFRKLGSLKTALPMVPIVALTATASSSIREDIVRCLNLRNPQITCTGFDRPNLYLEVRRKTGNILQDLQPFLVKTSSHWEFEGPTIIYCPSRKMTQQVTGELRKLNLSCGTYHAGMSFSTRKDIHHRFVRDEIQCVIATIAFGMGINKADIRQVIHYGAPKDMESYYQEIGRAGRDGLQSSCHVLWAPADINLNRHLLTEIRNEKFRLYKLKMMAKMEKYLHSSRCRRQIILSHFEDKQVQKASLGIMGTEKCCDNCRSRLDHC

With `CCc1c(N2CCN(C(=O)CNC(=O)c3ccccc3F)CC2)c(=O)n2nc(SC)nc2n1CC(=O)Nc1ccc(C(F)(F)F)cc1Cl` [Example 241, N-(2-(4-(4-(2-((2-Chloro-4-(trifluoromethyl)phenyl)amino)-2-oxoethyl)-5-ethyl-2-(methylthio)-7-oxo-4,7-dihydro-[1,2,4]triazolo[1,5-a]pyrimidin-6-yl)piperazin-1-yl)-2-oxoethyl)-2-fluorobenzamide], the IC50 in assay [1] and in assay [2] was 0.1 to 1 µM throughout.

Take `CCc1c(N2CCN(C(=O)CNC(=O)c3ccccn3)CC2)c(=O)n2nc(C3=CCOCC3)nc2n1CC(=O)Nc1ccc(C(F)(F)F)cc1Cl` [Example 95, N-(2-(4-(4-(2-((2-Chloro-4-(trifluoromethyl)phenyl)amino)-2-oxoethyl)-2-(3,6-dihydro-2H-pyran-4-yl)-5-ethyl-7-oxo-4,7-dihydro-[1,2,4]triazolo[1,5-a]pyrimidin-6-yl)piperazin-1-yl)-2-oxoethyl)picolinamide]: the 50% inhibitory concentration (IC50) in assay [1] and in assay [2] was less than 0.1 µM in each case.

As for `CCc1c(N2CCN(C(=O)CNC(=O)c3cc(NC)c(F)cc3F)CC2)c(=O)n2nc(C3=CCOCC3)nc2n1CC(=O)Nc1ccc(C(F)(F)F)cc1F` [Example 213, N-(2-(4-(2-(3,6-Dihydro-2H-pyran-4-yl)-5-ethyl-4-(2-((2-fluoro-4-(trifluoromethyl)phenyl)amino)-2-oxoethyl)-7-oxo-4,7-dihydro-[1,2,4]triazolo[1,5-a]pyrimidin-6-yl)piperazin-1-yl)-2-oxoethyl)-2,4-difluoro-5-(methylamino)benzamide], the IC50 in assay [1] and in assay [2] was less than 0.1 µM throughout.

For the molecule `CCc1c(N2CCN(C(=O)CNC(=O)c3csc(C)n3)CC2)c(=O)n2nc(C3=CCOCC3)nc2n1CC(=O)Nc1ccc(C(F)(F)F)cc1Cl` [Example 105, N-(2-(4-(4-(2-((2-Chloro-4-(trifluoromethyl)phenyl)amino)-2-oxoethyl)-2-(3,6-dihydro-2H-pyran-4-yl)-5-ethyl-7-oxo-4,7-dihydro-[1,2,4]triazolo[1,5-a]pyrimidin-6-yl)piperazin-1-yl)-2-oxoethyl)-2-methylthiazole-4-carboxamide], the IC50 in assay [1] is 0.1 to 1 µM; in assay [2], less than 0.1 µM.

Turning to `CCc1c(N2CCN(C(=O)CNC(=O)c3ccco3)CC2)c(=O)n2nc(C3=CCOCC3)nc2n1CC(=O)Nc1ccc(C(F)(F)F)cc1Cl` [Example 385, N-(2-(4-(4-(2-((2-Chloro-4-(trifluoromethyl)phenyl)amino)-2-oxoethyl)-2-(3,6-dihydro-2H-pyran-4-yl)-5-ethyl-7-oxo-4,7-dihydro-[1,2,4]triazolo[1,5-a]pyrimidin-6-yl)piperazin-1-yl)-2-oxoethyl)furan-2-carboxamide], the IC50 in assay [1] and in assay [2] was less than 0.1 µM each time.

For `CCc1c(N2CCN(C(=O)c3ccn4nccc4c3O)CC2)c(=O)n2nc(C3=CCOCC3)nc2n1CC(=O)Nc1ccc(C(F)(F)F)cc1Cl` [Example 200, N-(2-Chloro-4-(trifluoromethyl)phenyl)-2-(2-(3,6-dihydro-2H-pyran-4-yl)-5-ethyl-6-(4-(4-hydroxypyrazolo[1,5-a]pyridine-5-carbonyl)piperazin-1-yl)-7-oxo-[1,2,4]triazolo[1,5-a]pyrimidin-4(7H)-yl)acetamide], the IC50 in assay [1] and in assay [2] was less than 0.1 µM throughout.

In the case of `CCc1c(N2CCN(C(=O)CNC(=O)c3nccs3)CC2)c(=O)n2nc(C3=CCOCC3)nc2n1CC(=O)Nc1ccc(C(F)(F)F)cc1Cl` [Example 100, N-(2-(4-(4-(2-((2-Chloro-4-(trifluoromethyl)phenyl)amino)-2-oxoethyl)-2-(3,6-dihydro-2H-pyran-4-yl)-5-ethyl-7-oxo-4,7-dihydro-[1,2,4]triazolo[1,5-a]pyrimidin-6-yl)piperazin-1-yl)-2-oxoethyl)thiazole-2-carboxamide], the IC50 in assay [1] and in assay [2] was less than 0.1 µM throughout.

As to `CCc1c(N2CCN(C(=O)c3cnn4cccc4c3O)CC2)c(=O)n2nc(C3=CCOCC3)nc2n1CC(=O)Nc1ccc(C(F)(F)F)cc1Cl` [Example 84, N-(2-Chloro-4-(trifluoromethyl)phenyl)-2-(2-(3,6-dihydro-2H-pyran-4-yl)-5-ethyl-6-(4-(4-hydroxypyrrolo[1,2-b]pyridazine-3-carbonyl)piperazin-1-yl)-7-oxo-[1,2,4]triazolo[1,5-a]pyrimidin-4(7H)-yl)acetamide], the concentration for half-maximal inhibition (IC50) in assay [1] and in assay [2] was less than 0.1 µM each time.

For the molecule `CCc1c(N2CCN(C(=O)CNC(=O)c3cc(F)cc(NC)c3)CC2)c(=O)n2nc(C3=CCOCC3)nc2n1CC(=O)Nc1ccc(C(F)(F)F)cc1Cl` [Example 284, N-(2-(4-(4-(2-((2-Chloro-4-(trifluoromethyl)phenyl)amino)-2-oxoethyl)-2-(3,6-dihydro-2H-pyran-4-yl)-5-ethyl-7-oxo-4,7-dihydro-[1,2,4]triazolo[1,5-a]pyrimidin-6-yl)piperazin-1-yl)-2-oxoethyl)-3-fluoro-5-(methylamino)benzamide], the IC50 in assay [1] and in assay [2] was less than 0.1 µM throughout.

As for `CCc1c(N2CCN(C(=O)c3cccc(C)c3O)CC2)c(=O)n2nc(C3=CCOCC3)nc2n1CC(=O)Nc1ccc(C(F)(F)F)cc1Cl` [Example 60, N-(2-Chloro-4-(trifluoromethyl)phenyl)-2-(2-(3,6-dihydro-2H-pyran-4-yl)-5-ethyl-6-(4-(2-hydroxy-3-methylbenzoyl)piperazin-1-yl)-7-oxo-[1,2,4]triazolo[1,5-a]pyrimidin-4(7H)-yl)acetamide], the IC50 in assay [1] and in assay [2] was 0.1 to 1 µM throughout.

As for `CCc1c(N2CCN(C(=O)C(=O)Nc3ncco3)CC2)c(=O)n2nc(C3=CCOCC3)nc2n1CC(=O)Nc1ccc(C(F)(F)F)cc1Cl` [Example 226, 2-(4-(4-(2-((2-Chloro-4-(trifluoromethyl)phenyl)amino)-2-oxoethyl)-2-(3,6-dihydro-2H-pyran-4-yl)-5-ethyl-7-oxo-4,7-dihydro-[1,2,4]triazolo[1,5-a]pyrimidin-6-yl)piperazin-1-yl)-N-(oxazol-2-yl)-2-oxoacetamide], the IC50 in assay [1] and in assay [2] was less than 0.1 µM each time.

As for `CCc1c(N2CCN(C(=O)C(=O)Nc3cncs3)CC2)c(=O)n2nc(C3=CCOCC3)nc2n1CC(=O)Nc1ccc(C(F)(F)F)cc1F` [Example 349, 2-(4-(2-(3,6-Dihydro-2H-pyran-4-yl)-5-ethyl-4-(2-((2-fluoro-4-(trifluoromethyl)phenyl)amino)-2-oxoethyl)-7-oxo-4,7-dihydro-[1,2,4]triazolo[1,5-a]pyrimidin-6-yl)piperazin-1-yl)-2-oxo-N-(thiazol-5-yl)acetamide], the IC50 in assay [1] and in assay [2] was less than 0.1 µM throughout.

Take `CCc1c(N2CCN(C(=O)NS(=O)(=O)CC)CC2)c(=O)n2nc(C3=CCOCC3)nc2n1CC(=O)Nc1ccc(C(F)(F)F)cc1Cl` [Example 25, 4-(4-(2-((2-Chloro-4-(trifluoromethyl)phenyl)amino)-2-oxoethyl)-2-(3,6-dihydro-2H-pyran-4-yl)-5-ethyl-7-oxo-4,7-dihydro-[1,2,4]triazolo[1,5-a]pyrimidin-6-yl)-N-(ethylsulfonyl)piperazine-1-carboxamide]: the concentration for half-maximal inhibition (IC50) in assay [1] and in assay [2] was less than 0.1 µM in each case.

In the case of `CCc1c(N2CCN(C(=O)c3cnn4cccc4c3O)CC2)c(=O)n2nc(C3=CCOCC3)nc2n1CC(=O)Nc1sc(C)cc1C` [Example 298, 2-(2-(3,6-Dihydro-2H-pyran-4-yl)-5-ethyl-6-(4-(4-hydroxypyrrolo[1,2-b]pyridazine-3-carbonyl)piperazin-1-yl)-7-oxo-[1,2,4]triazolo[1,5-a]pyrimidin-4(7H)-yl)-N-(3,5-dimethylthiophen-2-yl)acetamide], the IC50 in assay [1] and in assay [2] was less than 0.1 µM each time.

`CCc1c(N2CCN(C(=O)c3sc4cccnc4c3N)CC2)c(=O)n2nc(C3=CCOCC3)nc2n1CC(=O)Nc1ccc(C(F)(F)F)cc1Cl` [Example 2, 2-(6-(4-(3-Aminothieno[3,2-b]pyridine-2-carbonyl)piperazin-1-yl)-2-(3,6-dihydro-2H-pyran-4-yl)-5-ethyl-7-oxo-[1,2,4]triazolo[1,5-a]pyrimidin-4(7H)-yl)-N-(2-chloro-4-(trifluoromethyl)phenyl)acetamide]: the IC50 in assay [1] and in assay [2] was 0.1 to 1 µM each time.

Turning to `CCc1c(N2CCN(C(=O)CNC(=O)c3cccc(F)c3)CC2)c(=O)n2nc(C3=CCOCC3)nc2n1CC(=O)Nc1ccc(C(F)(F)F)cc1Cl` [Example 99, N-(2-(4-(4-(2-((2-Chloro-4-(trifluoromethyl)phenyl)amino)-2-oxoethyl)-2-(3,6-dihydro-2H-pyran-4-yl)-5-ethyl-7-oxo-4,7-dihydro-[1,2,4]triazolo[1,5-a]pyrimidin-6-yl)piperazin-1-yl)-2-oxoethyl)-3-fluorobenzamide], the IC50 in assay [1] and in assay [2] was less than 0.1 µM each time.

For `CCc1c(N2CCN(C(=O)C(=O)NC3CC3)CC2)c(=O)n2nc(C3=CCOCC3)nc2n1CC(=O)Nc1ccc(C(F)(F)F)cc1Cl` [Example 359, 2-(4-(4-(2-((2-Chloro-4-(trifluoromethyl)phenyl)amino)-2-oxoethyl)-2-(3,6-dihydro-2H-pyran-4-yl)-5-ethyl-7-oxo-4,7-dihydro-[1,2,4]triazolo[1,5-a]pyrimidin-6-yl)piperazin-1-yl)-N-cyclopropyl-2-oxoacetamide], the IC50 in assay [1] and in assay [2] was 0.1 to 1 µM in each case.

As for `CCc1c(N2CCN(C(=O)CNC(=O)c3ccccc3)CC2)c(=O)n2nc(N3CCOCC3)nc2n1CC(=O)Nc1ccc(C(F)(F)F)cc1Cl` [Example 231, N-(2-(4-(4-(2-((2-Chloro-4-(trifluoromethyl)phenyl)amino)-2-oxoethyl)-5-ethyl-2-morpholino-7-oxo-4,7-dihydro-[1,2,4]triazolo[1,5-a]pyrimidin-6-yl)piperazin-1-yl)-2-oxoethyl)benzamide], the IC50 in assay [1] and in assay [2] was less than 0.1 µM in each case.

The values above are taken from patent US20260015358A1, “BICYCLIC DERIVATIVES, COMPOSITIONS AND USES THEREOF” (Danatlas Pharmaceuticals Co., Ltd., priority 2023, published 2026).
